Results as given in patent US7713949B2, “Compositions and methods for enhancing paracellular permeability across epithelial and endothelial barriers” (The University of North Carolina at Chapel Hill, priority 2000, dated 2010).

What was measured:
MDCK cell monolayers [1] = assay: Effect on transepithelial electrical resistance (TEER) across MDCK cell monolayers; type: cell-based, canine; details: for EC50: 0.5 h, MDCK cells, apical, 30-minute incubation at 37° C., mean ± SD, read-out: EC50 (concentration required to decrease TEER by fifty percent); for Effect on TEER: 30-minute treatment
Experimental: (§1) For transport studies, MDCK cells, derived from normal proximal epithelial kidney cells of a male cocker spaniel, which is model for transport experiments (Cho, M. J., et al. (1989) Pharm. Res. 6:71-77), were grown on TRANSWELL™ multi-well plates. Each well was seeded with 200,000 cells. The cells were then grown in cell media (MEM with 1% antibiotic, supplemented with 10% fetal bovine serum (FBS) and 1% NEAA), and were maintained at 37° C. and 5% CO2. Confluent cells were grown for four days where they differentiated into epithelial cell monolayers as evidenced by the establishment of a stable TEER.
TEER (expressed as Ω·cm^2) serves as a measure of functional integrity of tight junctions. TEER was measured by an EVOM Epithelial Tissue Voltohmeter (World Precision Instruments, Sarasota, Fla.) and an Endohm-12 electrode (World Precision Instruments, Sarasota, Fla.). TEER values of MDCK cells that formed a functional monolayer ranged between 150-250 Ω·cm^2.
Experiments were initiated by adding 0.5 mL of HBSS supplemented with 10 mM HEPES, pH 7.4 (transport buffer) containing compound or vehicle to the apical side of the TRANSWELL™ multi-well plate. […] Data from each experiment were normalized to the response from the vehicle and were reported as the mean±SD of three experiments performed in triplicate.
The effect of akylphosphocholines on TEER was evaluated at several concentrations, and the concentration that caused a 50% decrease in TEER with respect to the untreated control was defined as EC50 (Liu, D. Z., et al. (1999) J. Pharm. Sci. 88:1161-1168; Liu, D. Z., et al. (1999) J. Pharm. Sci. 88:1169-1174).

MDCK cell monolayers [2] = assay: Effect on [14C]-mannitol flux across MDCK cell monolayers; type: cell-based, canine; details: for EC10x (concentration that increases mannitol flux by ten fold): MDCK cells, apical, flux measured between 30 and 60 minutes of treatment, mean ± SD
Experimental: as §1
Mannitol, a hydrophilic compound, cannot readily cross the epithelial membrane, and must transverse the epithelium via the paracellular pathway. Therefore, the flux of mannitol through the epithelium is a reflection of the permeability of the paracellular pathway. Detection of mannitol is accomplished with [^3H] or [^14C] radiolabels.
The integrity of the tight junctions of cell monolayers was monitored with the measurement of TEER prior to the experiment. Transport experiments were initiated by replacing the apical media with 0.5 mL of transport buffer containing compound or vehicle, and [^14C]-mannitol. Concentration of [^14C]-mannitol was 25 μM (55 mCi/mmol). Transport rates were monitored by the measurement of the amount of [^14C]-mannitol accumulated in the basolateral side (1.5 mL) during two 30-minute intervals. The amount of radiolabeled [^14C]-mannitol transported was measured by liquid scintillation counting in a Packard Tri Carb 4000 Series spectrophotometer available from Packard Instrument Company of Meriden, Conn. All transport experiments were carried out under sink conditions (transport experiments were designed such that less than 10% of the total amount of [^14C]-mannitol was present on the basolateral side at any given time). The effect of alkylphosphocholines on the transport of [^14C]-mannitol was normalized to the transport of [^14C]-mannitol in the vehicle-treated cells and was reported as the mean±SD of three experiments performed in triplicate. The EC10x was determined by the concentration of compound that causes a 10-fold increase in mannitol flux with respect to the vehicle treated control.

PLC-β = assay: ATP-stimulated PLC activity ([3H]-inositol phosphate accumulation) in MDCK cells; type: cell-based, canine; details: for Effect on ATP-stimulated PLC (PLC-β) activity: 100 μM ATP; for Effect on ATP-stimulated PLC (PLC-β) activity / IC50: MDCK cells; for IC50: 30 minutes with compound, then 15 minutes stimulation, mean ± SD, read-out: IC50(PLC) (concentration causing fifty percent decrease in ATP- or EGF-stimulated accumulation of [3H]-inositol phosphates)
Experimental: (§2) Measurement of activity of PLC in MDCK cells was determined by an adaptation of a previously published method (Schachter, J. B., et al. (1997) Neuropharm. 36:1181-1187). MDCK cells were seeded at 400,000 cells/well in a 12-well plate and subsequently cultured for four days. MDCK cell monolayers were then labeled with [^3H]-myo-inositol (1.6 μCi/well in 0.4 ml of inositol-free media) for 24 hours at 37° C. Assays were initiated on labeled cells that were removed from the incubator by immediately supplementing the cells with 100 μl of 250 mM HEPES (pH 7.3), containing 100 mM LiCl with or without compound. Subsequently, the cells were incubated for 30 minutes at 37° C. Immediately after the termination of this incubation, ATP (final concentration: 100 μM) or EGF (20 ng/ml) was added.
(§3) The cells were then incubated at 37° C. for 15 minutes to allow accumulation of [^3H]-inositol phosphates. Incubations were terminated by aspiration of the media and the addition of 1 ml of boiling 10 mM EDTA (pH 8.0). The supernatant was applied to AG1 X8 formate columns for chromatographic isolation of [^3H]-inositol phosphates (Berridge, M. J., et al. (1983) Biochem. J. 212:473-482). The amount of [^3H]-inositol phosphates was measured by liquid scintillation counting in a Packard Tri Carb 4000 Series spectrophotometer. Data from each experiment were normalized to the response observed with 100 μM ATP or 20 ng/ml EGF and were reported as the mean±SD of three experiments performed in triplicate. The IC50 (PLC) was determined by the concentration of compound that causes a 50% decrease in ATP- or EGF-stimulated accumulation of [^3H]-inositol phosphates.
To determine the ability alkylphosphocholines to inhibit PLC activity, the ability of these compounds to inhibit the ATP-mediated increases in the levels of inositol phosphates was determined. The separation between the counts from basal and ATP-stimulated levels of [^3H]-inositol-phosphates from MDCK cell monolayers was, however, marginal (approximately 1.5-fold) for a reliable determination of the ability of alkylphosphocholines to inhibit PLC activity. To increase this separation, MDCK cells that were transfected with a plasmid that encoded the P2Y2 receptor were employed. The P2Y2 receptor is G-protein coupled receptor that activates PLC (Pawelczyk, T., and Lowenstein, J. M. (1993) Biochem. Pharm. 45:493-497). The separation between the counts from basal and ATP-stimulated levels of [^3H]-inositol-phosphates from MDCK monolayers that express P2Y2 receptors increased to approximately a 3-fold difference (counts from basal and ATP-stimulated levels of [^3H]-inositol-phosphates ranged from 200 to 400 and 700 to 1200 cpm, respectively).

PLC-γ = assay: EGF-stimulated PLC activity ([3H]-inositol phosphate accumulation) in MDCK cells; type: cell-based, canine; details: 20 ng/ml EGF
Experimental: as §2, §3

[3] = in animals; cited from earlier work
PLC = details: Perrella et al. 1994; cited from earlier work

| Structure (SMILES) | IC50 (PLC-β) [µM] | EC50 (MDCK cell monolayers [1]; Canis lupus familiaris) [µM] | EC10x (concentration that increases mannitol flux by ten fold) (MDCK cell monolayers [2]) [µM] | Effect on ATP-stimulated PLC (PLC-β) activity (PLC-β) | Effect on EGF-stimulated PLC-γ activity (PLC-γ) | also measured |
| --- | --- | --- | --- | --- | --- | --- |
| CO[C@@]1(NC(=O)Cc2cccs2)C(=O)N2C(C(=O)O)=C(COC(N)=O)CS[C@@H]21 [cefoxitin] | – | – | – | – | – | Oral bioavailability [3]: less than five percent |
| O=c1oc2cc(O)ccc2cc1[N+](=O)[O-] [7-hydroxy-3-nitrocoumarin] | – | – | – | – | – | PLC inhibition, previously reported (PLC): previously reported not to inhibit PLC |
| COc1ccc2c(c1)CC[C@@H]1[C@@H]2CC[C@]2(C)[C@@H](NCCCCCCN3C(=O)CCC3=O)CC[C@@H]12 [U-73,343, reference compound] | – | – | – | did not decrease TEER or ATP-stimulated PLC activity | – | Effect on TEER (MDCK cell monolayers [1]): did not decrease TEER |
| O=c1oc2ccccc2cc1[N+](=O)[O-] [3-nitrocoumarin, reference compound] | 21 ± 5 | 24 ± 1 | 34 ± 5 | no inhibitory activity toward PLC-β | inhibited EGF-stimulated PLC-γ activity | – |
| COc1ccc2c(c1)CCC1C2CCC2(C)C(NCCCCCCN3C(=O)C=CC3=O)CCC12 (centres unmarked) [U-73,122, reference compound] | 7 ± 3 | 6 ± 2 | 6 ± 2 | inhibited ATP-stimulated PLC-β activity | had no effect on EGF-stimulated PLC-γ activity | Effect on TEER (MDCK cell monolayers [1]): potently decreased TEER; Effect on mannitol flux (MDCK cell monolayers [2]; interval between 30 and 60 minutes of treatment): increased mannitol flux |

The next lines start with results.

| IC50 (PLC-β) [µM] | Structure (SMILES) | EC50 (MDCK cell monolayers [1]; Canis lupus familiaris) [µM] | EC10x (concentration that increases mannitol flux by ten fold) (MDCK cell monolayers [2]) [µM] | Effect on ATP-stimulated PLC (PLC-β) activity (PLC-β) | Effect on EGF-stimulated PLC-γ activity (PLC-γ) | also measured |
| --- | --- | --- | --- | --- | --- | --- |
| 36 ± 18 | CCCCCCCCCCCCCCCCOP(=O)([O-])OCC[N+](C)(C)C [C16, Hexadecylphosphocholine] | 29 ± 5 | 30 ± 8 | inhibited ATP-stimulated PLC-β activity | had no effect on EGF-stimulated PLC-γ activity | activity at 30 µM (MDCK cell monolayers [1]; Canis lupus familiaris, MDCK, 2 h, 30 μM, over a two-hour period, read-out: TEER, % of control values): < 10% |
| 30 ± 2 | CCCCCCCCCCCCCCCCCCOP(=O)([O-])OCC[N+](C)(C)C [C18] | 59 ± 8 | 66 ± 11 | – | – | – |
| 73 ± 9 | CCCCCCCCCCCCCCOP(=O)([O-])OCC[N+](C)(C)C [C14] | 44 ± 11 | 91 ± 11 | – | – | – |
| 48 ± 5 | CCCCCCCCCCCCCCCCCCCCOP(=O)([O-])OCC[N+](C)(C)C [C20] | 71 ± 8 | 73 ± 1 | – | – | – |
| 275 ± 135 | CCCCCCCCCCCCOP(=O)([O-])OCC[N+](C)(C)C [C12, Dodecylphosphocholine] | 733 ± 32 | 900 ± 100 | – | – | Full extent of PLC inhibition (PLC-β; ATP-stimulated inositol phosphate production): 50% |
